Experimental data from PMC8564765 (Journal of medicinal chemistry, 2021).

System: MPO activity
Assay: MR imaging of CFA-induced subcutaneous inflammation
Assay type: in vivo
Conditions: wild-type mice, 0.3 mmol/kg

## CNC[C@H](O)[C@@H](O)[C@H](O)[C@H](O)CO.O=C([O-])CN1CCN(CC(=O)[O-])CCN(CC(=O)O)CCN(CC(=O)[O-])CC1.[Gd+3] [DOTA-Gd, gadoterate meglumine]
  Course of CNR over 60 min: decreased rapidly over time
